11 compounds from patent publication EP1056778B1, “G PROTEIN-COUPLED RECEPTOR ANTAGONISTS” (priority 1998, dated 1999) can be followed below.

Where two headings read alike, the source gives them in different places. Where a SMILES comes first, the peptide text is derived from it. Where no end group is shown, it is not given here. K(Rhod) = not defined here Bounds are passed on as bounds.

The target in one assay is CXCR4 (Homo sapiens, UniProt P61073). Description: Inhibition of SDF-1α-induced intracellular calcium release (Fura-2/AM, HeLa and U87 cells expressing CXCR4). Type of assay: cell-based. Particulars: for Concentration, required for complete inhibition of [Ca^2+ I] release: Table 3, peptides from second transmembrane domain of CXCR4; for Concentration, required for complete inhibition of [Ca ^2+ i] release: Table 1. As to the method:
The effect of the peptides on CXCR4-mediated calcium fluxes in HeLa cells that naturally express the CXCR4 receptor and U87 cells stably expressing the CXCR4 receptor was tested as follows. Cells grown on Nunc cover glass chamber slides were incubated with 1 micromolar Fura-2/AM for 20 min in a CO2-incubator, rinsed with PBS and mounted on the stage of a Zeiss Axiovert inverted microscope. [Ca^2+]i measurements were performed using an Attofluor digital imaging system (Atto Instruments, Rockville, MD). Fluorescence of Fura was excited at alternating wavelength of 340 and 380 nm. Fluorescence was monitored by an intensified CCD camera using a 505 cut-off filter. Calibrations of [Ca^2+]i signals were performed using Ca^2+ standards containing 1 micromolar Fura. CXCR4 antagonists were tested on HeLa cells and U87 cells. Stromal cell-derived factor-1α (SDF-1α) was used as a specific CXCR4 agonist.
CCR5 antagonists, which were used in selectivity studies as described below, were tested on HEK (human kidney […]) cells stably expressing the CCR5 receptor and RANTES was used as an agonist. The antagonist activity of the peptides was evaluated by measuring the inhibition of agonist-evoked intracellular Ca^2+i release. These measurements were carried out in Fura-2/AM-treated cells, utilizing an Attofluor digital imaging system as described above. The agonist was SDF-1α.
Further optimization and structure-activity studies allowed to obtain antagonists derived from all but the third and fifth transmembrane domains (Table 2). Table 1. Activity of synthetic peptides corresponding to predicted transmembrane domains of CXCR4 in inhibition of SDF-1α-induced intracellular calcium release.
Table 2. Biological activity of CXCR4 antagonists derived from different transmembrane domains. Anti signaling activity was determined in inhibition of SDF-1α-induced intracellular calcium release. Anti-HIV-1 activity was assessed in cytoprotection assay utilizing CEM-SS cells infected with HIV-1RF.
(In general: Calcium assays in cells follow changes in intracellular calcium, usually with a dye or a luminescent sensor.)

The target in the next assay is T1, CCKAR (Rattus norvegicus, UniProt P30551).
T1 construct: expressed in transfected cells; host or cells: CHO cells
T1 sequence (P30551 1-444): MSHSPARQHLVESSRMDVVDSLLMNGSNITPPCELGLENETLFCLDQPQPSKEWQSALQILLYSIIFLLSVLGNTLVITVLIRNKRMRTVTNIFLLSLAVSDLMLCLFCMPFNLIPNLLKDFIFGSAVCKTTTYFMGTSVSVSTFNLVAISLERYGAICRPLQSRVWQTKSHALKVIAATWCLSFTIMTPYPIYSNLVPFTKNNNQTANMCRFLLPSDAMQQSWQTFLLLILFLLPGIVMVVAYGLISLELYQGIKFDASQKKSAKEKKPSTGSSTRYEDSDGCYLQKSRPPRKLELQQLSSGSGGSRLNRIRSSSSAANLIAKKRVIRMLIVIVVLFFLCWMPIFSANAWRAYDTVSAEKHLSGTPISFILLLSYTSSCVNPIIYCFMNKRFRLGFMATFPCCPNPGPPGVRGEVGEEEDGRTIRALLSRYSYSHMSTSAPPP
Description: Inhibition of binding of fluorescent agonist RG-CCK-8, quantitative confocal laser scanning microscopy.

A further assay deals with HIV-1RF. Description: Anti-HIV-1 cytoprotection assay, CEM-SS cells infected with HIV-1 strain RF. Type of assay: cell-based.
Where [1] appears, read: cytoprotection assay, CEM-SS cells infected with HIV-1RF, read-out: EC50 in anti-HIV-1 assay.
Where [2] appears, read: SDF-1α-induced intracellular calcium release.

CXCR4, sequence (P61073 whole entry, the tested form may be a part): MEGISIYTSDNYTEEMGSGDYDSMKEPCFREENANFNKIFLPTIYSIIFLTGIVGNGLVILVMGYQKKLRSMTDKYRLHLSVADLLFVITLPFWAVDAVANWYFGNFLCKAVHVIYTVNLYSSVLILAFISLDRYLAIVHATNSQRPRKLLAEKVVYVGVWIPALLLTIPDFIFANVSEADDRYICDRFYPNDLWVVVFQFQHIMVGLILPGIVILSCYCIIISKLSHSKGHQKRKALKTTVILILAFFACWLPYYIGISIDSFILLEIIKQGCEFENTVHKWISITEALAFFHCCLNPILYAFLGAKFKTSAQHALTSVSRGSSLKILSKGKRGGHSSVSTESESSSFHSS

`CC[C@H](C)[C@H](NC(=O)[C@@H](NC(=O)[C@H](Cc1ccccc1)NC(=O)[C@H](CC(C)C)NC(=O)[C@H](CC(C)C)NC(C)=O)C(C)C)C(=O)N[C@H](C(=O)N[C@@H](CC(C)C)C(=O)N1CCC[C@H]1C(=O)N[C@@H](Cc1ccccc1)C(=O)N[C@@H](Cc1c[nH]c2ccccc12)C(=O)N[C@@H](C)C(=O)N[C@H](C(=O)N[C@@H](CC(=O)O)C(=O)N[C@@H](C)C(=O)N[C@H](C(=O)N[C@@H](C)C(=O)N[C@@H](CC(N)=O)C(=O)N[C@@H](CC(=O)O)C(=O)N[C@@H](CC(=O)O)C(=O)O)C(C)C)C(C)C)[C@@H](C)O` [AcF-2-5]: at CXCR4, the “Concentration, required for complete inhibition of [Ca^2+ I] release” value was 10 µM.
With `CC[C@H](C)[C@H](NC(=O)[C@H](CCC(N)=O)NC(=O)[C@H](CC(C)C)NC(=O)[C@H](C)NC(=O)[C@H](CO)NC(=O)[C@H](CCC(N)=O)NC(=O)[C@H](Cc1c[nH]c2ccccc12)NC(=O)[C@H](CCC(=O)O)NC(=O)[C@H](CC(=O)O)NC(=O)[C@@H](N)CC(=O)O)C(=O)N[C@@H](CC(C)C)C(=O)N[C@@H](CC(C)C)C(=O)N[C@@H](Cc1ccc(O)cc1)C(=O)N[C@@H](CO)C(=O)N[C@H](C(=O)N[C@H](C(=O)N[C@@H](Cc1ccccc1)C(=O)N[C@@H](CC(C)C)C(=O)N[C@@H](CC(C)C)C(=O)N[C@@H](CO)C(=O)N[C@H](C(=O)NCC(=O)N[C@@H](CC(N)=O)C(=O)N[C@H](C(=O)N[C@@H](CC(C)C)C(=O)N[C@H](C(=O)N[C@H](C(=O)N[C@H](C(=O)N[C@H](C(=O)O)C(C)C)[C@@H](C)O)[C@@H](C)CC)C(C)C)[C@@H](C)O)C(C)C)[C@@H](C)CC)[C@@H](C)CC` [CCKAR-1-6] (H-DDEWQSALQILLYSIIFLLSVGNTLVITV-OH), the half-maximal inhibitory concentration (IC50) on CCKAR (fluorescent agonist rhodamine green CCK-8, read-out: IC50 in inhibiton of RG-CCK-8 binding) is 20 µM.
For `CC[C@H](C)[C@H](NC(=O)CNC(=O)[C@@H]1CCCN1C(=O)[C@H](CC(C)C)NC(=O)[C@H](CC(C)C)NC(=O)[C@H](Cc1ccccc1)NC(=O)[C@H](CC(C)C)NC(=O)[C@@H](NC(=O)[C@H](CC(C)C)NC(=O)[C@H](CC(C)C)NC(=O)[C@H](CC(C)C)NC(=O)[C@H](Cc1ccccc1)NC(=O)[C@@H](NC(=O)[C@H](CCC(N)=O)NC(=O)[C@H](CC(=O)O)NC(=O)[C@@H](N)CC(=O)O)[C@@H](C)O)[C@@H](C)CC)C(=O)N[C@H](C(=O)N[C@@H](CCSC)C(=O)N[C@H](C(=O)N[C@H](C(=O)N[C@@H](C)C(=O)N[C@@H](Cc1ccc(O)cc1)C(=O)NCC(=O)N[C@@H](CC(C)C)C(=O)O)C(C)C)C(C)C)C(C)C` [CCKAR-5-3] (H-DDQTFLLLILFLLPGIVMVVAYGL-OH), on CCKAR, the IC50 was > 50 µM.
Same read-out and setting: under `CC[C@H](C)[C@H](N)C(=O)N[C@H](C(=O)N[C@H](C(=O)N[C@@H](CC(C)C)C(=O)N[C@@H](Cc1ccccc1)C(=O)N[C@@H](Cc1ccccc1)C(=O)N[C@@H](CC(C)C)C(=O)N[C@@H](CS)C(=O)N[C@@H](Cc1c[nH]c2ccccc12)C(=O)N[C@@H](CCSC)C(=O)N1CCC[C@H]1C(=O)N[C@H](C(=O)N[C@@H](Cc1ccccc1)C(=O)N[C@@H](CO)C(=O)N[C@@H](C)C(=O)N[C@@H](CC(N)=O)C(=O)N[C@@H](C)C(=O)N[C@@H](Cc1c[nH]c2ccccc12)C(=O)N[C@@H](CCCNC(=N)N)C(=O)N[C@@H](C)C(=O)N[C@@H](Cc1ccc(O)cc1)C(=O)N[C@@H](CC(=O)O)C(=O)N[C@H](C(=O)N[C@H](C(=O)N[C@@H](CC(=O)O)C(=O)N[C@@H](CC(=O)O)C(=O)O)C(C)C)[C@@H](C)O)[C@@H](C)CC)C(C)C)C(C)C` [CCKAR-6-4] (H-IVVLFFLCWMPIFSANAWRAYDTVDD-OH) stands > 50 µM.
Take `CC[C@H](C)[C@H](NC(=O)[C@@H](NC(=O)[C@H](Cc1ccccc1)NC(=O)[C@H](CC(C)C)NC(=O)[C@@H](N)CC(C)C)C(C)C)C(=O)N[C@H](C(=O)N[C@@H](CC(C)C)C(=O)N1CCC[C@H]1C(=O)N[C@@H](Cc1ccccc1)C(=O)N[C@@H](Cc1c[nH]c2ccccc12)C(=O)N[C@@H](C)C(=O)N[C@H](C(=O)N[C@@H](CC(=O)O)C(=O)N[C@@H](C)C(=O)N[C@H](C(=O)N[C@@H](C)C(=O)N[C@@H](CC(N)=O)C(=O)N[C@@H](Cc1c[nH]c2ccccc12)C(=O)N[C@@H](Cc1ccc(O)cc1)C(=O)N[C@@H](Cc1ccccc1)C(=O)NCC(=O)N[C@@H](CC(N)=O)C(=O)N[C@@H](CC(=O)O)C(=O)N[C@@H](CC(=O)O)C(=O)O)C(C)C)C(C)C)[C@@H](C)O` [Peptide F-2-2] (H-LLFVITLPFWAVDAVANWYFGNDD-OH): the concentration for a half-maximal effect (EC50) in the assay on HIV-1RF (setting [1]) was found to be 2.27 µM.
Still for that read-out and setting: under `CC[C@H](C)[C@H](NC(=O)[C@H](Cc1ccccc1)NC(=O)[C@H](CC(=O)O)NC(=O)[C@@H]1CCCN1C(=O)[C@@H](NC(=O)[C@@H](NC(=O)[C@H](CC(C)C)NC(=O)[C@H](CC(C)C)NC(=O)[C@H](CC(C)C)NC(=O)[C@H](C)NC(=O)[C@@H]1CCCN1C(=O)[C@@H](NC(=O)[C@H](Cc1c[nH]c2ccccc12)NC(=O)[C@@H](NC(=O)CNC(=O)[C@@H](NC(=O)[C@H](Cc1ccc(O)cc1)NC(=O)[C@@H](N)C(C)C)C(C)C)C(C)C)[C@@H](C)CC)[C@@H](C)O)[C@@H](C)CC)C(=O)N[C@@H](Cc1ccccc1)C(=O)N[C@@H](C)C(=O)N[C@@H](CC(N)=O)C(=O)N[C@@H](CC(=O)O)C(=O)N[C@@H](CC(=O)O)C(=O)O` [Peptide F-4-2] (H-VYVGVWIPALLLTIPDFIFANDD-OH) stands 0.3 µM; under `CC[C@H](C)[C@H](NC(=O)CNC(=O)[C@@H](NC(=O)[C@H](Cc1ccc(O)cc1)NC(=O)[C@H](Cc1ccc(O)cc1)NC(=O)[C@@H]1CCCN1C(=O)[C@H](CC(C)C)NC(=O)[C@H](Cc1c[nH]c2ccccc12)NC(=O)[C@H](CS)NC(=O)[C@H](C)NC(=O)[C@H](Cc1ccccc1)NC(=O)[C@H](Cc1ccccc1)NC(=O)[C@H](C)NC(=O)[C@H](CC(C)C)NC(=O)[C@@H](NC(=O)[C@H](CC(C)C)NC(=O)[C@@H](NC(=O)[C@@H](N)C(C)C)[C@@H](C)CC)[C@@H](C)CC)[C@@H](C)CC)C(=O)N[C@@H](CO)C(=O)N[C@H](C(=O)N[C@@H](CC(=O)O)C(=O)O)[C@@H](C)CC` [Peptide F-6-1] (H-VILILAFFACWLPYYIGISID-OH), > 50 µM.
Take `CC[C@H](C)[C@H](NC(=O)[C@@H]1CCCN1C(=O)[C@H](CC(N)=O)NC(=O)[C@H](CC(C)C)NC(=O)[C@H](CS)NC(=O)[C@H](CS)NC(=O)[C@H](Cc1c[nH]cn1)NC(=O)[C@H](Cc1ccccc1)NC(=O)[C@H](Cc1ccccc1)NC(=O)[C@H](C)NC(=O)[C@H](CC(C)C)NC(=O)[C@H](C)NC(=O)[C@H](CCC(=O)O)NC(=O)[C@H](CC(=O)O)NC(=O)[C@@H](N)CC(=O)O)C(=O)N[C@@H](CC(C)C)C(=O)N[C@@H](Cc1ccc(O)cc1)C(=O)N[C@@H](C)C(=O)N[C@@H](Cc1ccccc1)C(=O)N[C@@H](CC(C)C)C(N)=O` [Peptide F-7-3] (H-DDEALAFFHCCLNPILYAFL-NH2; N-terminus assumed): the “Concentration, required for inhibition of signal transduction” value at CXCR4 (Table 2, SDF-1α-induced intracellular calcium release) amounted to 25 µM. In the assay on HIV-1RF (1RF), this compound came in with an EC50 of 3.27 µM.
Regarding “ACLLFVITLPFWAVDAVANWYFG NDDK(Rhod) D-OH (ACLLFVITLPFWAVDAVANWYFGNDD-{K(Rhod)-Asp-OH}; reading uncertain; also: printed as ACLLFVITLPFWAVDAVANWYFG NDDK(Rhod) D-OH) [Rhod - F-2]”, the “Concentration, required for complete inhibition of [Ca^2+ I] release” value with CXCR4 turned out to be 8 µM.
In the case of “ALAFFHCCLNPILYAFLGAK-NH2 (cysteine pairing not given here) [Peptide F-7-1]”, the “Concentration, required for complete inhibition of [Ca ^2+ i] release” value with CXCR4 (setting [2]) is > 100 µM.
Still for that read-out and setting: under “HIMVGLILPGIVILSCYCIII-NH2 (cysteine pairing not given here) [Peptide F-5-1]” stands >50 µM.

By IC50 is commonly meant the concentration that gives 50% inhibition. The term EC50 denotes the midpoint of the concentration-response curve.
